# Entries after “also recorded” stand apart in the source; their conditions may differ. Like-named read-outs stand apart in the source and are kept apart here.
# What was measured:
# [1] = tested on: A549 cells; conditions: cited from earlier work; for IC50: MTT assay; for SI A549: selectivity index vs HaCaT
# [2] = tested on: MDA; set-up: method as in earlier work; conditions: cited from earlier work; for IC50: MTT assay; for SI MDA: selectivity index vs HaCaT
# [3] = tested on: HaCaT cells; conditions: cited from earlier work; for IC50: MTT assay, normal cells; for cytotoxic effects on HaCaT cells: in words
# [4] = tested on: MiaPaCa-2; set-up: method as in earlier work; conditions: cited from earlier work; for IC50: MTT assay; for SI MiaPaCa-2: selectivity index vs HaCaT
# [5] = tested on: PC3; set-up: method as in earlier work; conditions: cited from earlier work; for IC50: MTT assay; for SI PC3: selectivity index vs HaCaT
# [6] = tested on: HCT-116 cells; conditions: cited from earlier work; for IC50: MTT assay, read-out: IC50 HCT116; for SI HCT116: selectivity index vs HaCaT
# [7] = RP-TLC lipophilicity (RM0, log PTLC, C0), silica gel RP-18F254, acetone/TRIS buffer pH 7.4; assay type: physicochemical; conditions: for RM0: RP-TLC, RM extrapolated to 0% acetone, TRIS buffer pH 7.4; for log PTLC / chromatographic logP: from RM0 by calibration curve log PTLC = 1.2862RM0 + 0.2061; for C0: chromatography hydrophobic index, C0 = −RM0/b
# Protocol: In connection with this, in the next stage of the study, the parameters of lipophilicity of the tested compounds were determined experimentally. […] This technique was used to determine the retardation coefficient Rf for each compound in eight mobile phases consisting of acetone and Tris buffer in different volume ratios (50–85% acetone). Next, the Rf values were converted to the chromatographic parameter RM, and then the obtained values were extrapolated to 0% acetone content in the mobile phase obtaining the lipophilicity parameter RM0 (Table S2).
# The parameter RM0 can be correlated to an experimental log P lipophilicity parameter of chemical molecules (log PTLC) by applying a calibration curve. The calibration curve was obtained by determining the Rf value for standard substances with a known log Plit value using the RP-TLC method under conditions analogous to those of the tested substances. After calculating the RM and RM0 values, the dependence of the log Plit parameter on the experimentally obtained RM0 values for standards was determined (Table 2).
# The chromatographic parameter of lipophilicity was determined by means of Soczewiński–Wachtmeister’s method. […] The acetone ratio was 50 to 85% (v/v) in increments of 5%. The tested compounds in the form of an ethanol solution at a concentration of 2.0 mg/mL each were spotted on chromatographic plates at an amount of 2 µL each. Before analysis, the chromatography chamber (Camag, Switzerland) was saturated with the mobile phase (50 mL) for 30 min. After development at 20 ± 2 °C and subsequent drying, the chromatograms were observed under UV light at 254 nm by using a Camag UV lamp (Muttenz, Switzerland). Each analysis was performed in triplicate. The average value of the retardation factor (Rf) was used to calculate RM using Equation (1):(1) RM=log(1−Rf/Rf)
# In addition, the chromatographic parameter of lipophilicity RM0 and b value allowed the determination of the chromatography hydrophobic index C0 by using the following formula:(3) C0=− RM0/b
# [8] = standard for calibration curve; cited from earlier work
# [9] = tested on: standard strains of staphylococci; conditions: cited from earlier work; for antibacterial activity: mainly against standard strains of staphylococci
Structure (SMILES),IC50 [1] [µM],SI A549 [1],SI A549 ([1]; listed as doxorubicin),IC50 [2] [µM],SI MDA [2],IC50 [3] [µM],IC50 [4] [µM],SI MiaPaCa-2 [4],IC50 [5] [µM],SI PC3 [5],IC50 [6] [µM],SI HCT116 [6],RM0 [7],log PTLC [7],log Plit [8],C0 [7],chromatographic logP [7],antibacterial activity [9],cytotoxic effects on HaCaT cells [3],MIC ([9]; standard strains) [µg/mL]
"COc1cccc2c1C(=O)c1c(O)c3c(c(O)c1C2=O)C[C@@](O)(C(=O)CO)C[C@@H]3O[C@H]1C[C@H](N)[C@H](O)[C@H](C)O1 [DX, doxorubicin, reference compound]",0.6 ± 0.2,0.14,0.14–0.15,0.8 ± 0.1,0.15,0.3 ± 0.1,0.6 ± 0.2,0.14,0.8 ± 0.1,0.15,0.59 ± 0.02,0.5,–,–,–,–,–,–,–,–
"CC(=O)Nc1ccccc1 [acetanilide, reference compound]",–,–,–,–,–,–,–,–,–,–,–,–,0.78,1.21,1.21 [35],–,–,–,–,–
"c1ccc2cc3ccccc3cc2c1 [anthracene, reference compound]",–,–,–,–,–,–,–,–,–,–,–,–,–,–,4.45 [36],–,–,–,–,–
"O=C(O)c1ccccc1 [benzoic acid, reference compound]",–,–,–,–,–,–,–,–,–,–,–,–,1.16,–,–,–,–,–,–,–
CCN(CC)CCN1c2cc(Cl)ccc2Sc2cc3ccccc3nc21 [compound 1],27.2 ± 8.4,3.7,–,< 100,1.0,< 100,–,–,–,–,–,–,3.98,–,–,69.58,5.33,moderate antibacterial activity,–,–
CN(C)CCCN1c2cc(Cl)ccc2Sc2cc3ccccc3nc21 [compound 2],8.2,7.6,–,52.1 ± 2.7,1.2,62.3 ± 2.5,40.2 ± 0.7,1.6,52.1 ± 7.1,1.2,1.6,–,3.77,5.05,–,70.60,–,moderate antibacterial activity,no cytotoxic effects,–
Clc1ccc2c(c1)N(CCN1CCCC1)c1nc3ccccc3cc1S2 [compound 3],17.4 ± 4.1,5.7,–,77.1 ± 1.6,1.3,< 100,57.4 ± 9.6,1.7,77.1 ± 9.4,1.3,17.5 ± 1.4,5.7,3.96,–,–,73.88,5.29,moderate antibacterial activity,–,–
Clc1ccc2c(c1)N(CCN1CCCCC1)c1nc3ccccc3cc1S2 [compound 4],63.8 ± 8.5,1.6,–,< 100,1.0,< 100,–,–,–,–,–,–,4.01,–,–,73.04,5.36,–,–,–
CN1CCCCC1CCN1c2cc(Cl)ccc2Sc2cc3ccccc3nc21 (stereo not shown) [compound 5],16 ± 4.2,1,–,16.7 ± 1.1,0.9,12.7 ± 1.9,24.3 ± 3.5,0.5,16.7 ± 1.8,0.7,7.7,1.6,4.20,5.61,–,84.51,–,–,–,–
O=C1c2ccccc2C(=O)N1CCCN1c2cc(Cl)ccc2Sc2cc3ccccc3nc21 [compound 6],–,–,–,–,–,–,–,–,–,–,–,–,4.12,–,–,82.90,5.5,–,–,–
CC(=O)NCCCN1c2cc(Cl)ccc2Sc2cc3ccccc3nc21 [compound 7],24.6 ± 6.1,4.1,–,76.6 ± 8.9,1.3,< 100,–,–,–,–,–,–,2.72,–,–,76.19,3.7,–,–,–
CCOC(=O)NCCCN1c2cc(Cl)ccc2Sc2cc3ccccc3nc21 [compound 8],86.6 ± 0.8,1.1,–,< 100,1.0,< 100,–,–,–,–,–,–,3.76,5.04,–,81.74,–,–,–,–
O=C(NCCCl)NCCCN1c2cc(Cl)ccc2Sc2cc3ccccc3nc21 [compound 9],9.3 ± 1.2,10.7,–,48.6 ± 7.3,2.0,< 100,23.2 ± 2.7,4.3,34.8 ± 9.8,2.8,10.4 ± 1.6,8.8,3.47,–,–,76.43,4.66,moderate antibacterial activity,–,–
CS(=O)(=O)NCCCN1c2cc(Cl)ccc2Sc2cc3ccccc3nc21 [compound 10],–,1.0,–,< 100,1.0,< 100,–,–,–,–,–,–,3.37,–,–,76.24,4.53,–,–,–
Cc1ccc(S(=O)(=O)NCCCN2c3cc(Cl)ccc3Sc3cc4ccccc4nc32)cc1 [compound 11],–,1.0,–,< 100,1.0,< 100,–,–,–,–,–,–,4.59,–,–,79.96,6.1,–,–,–
O=C1c2ccccc2C(=O)N1CCCCN1c2cc(Cl)ccc2Sc2cc3ccccc3nc21 [compound 12],–,–,–,–,–,–,–,–,–,–,–,–,4.41,–,–,85.47,5.88,–,–,–
CC(=O)NCCCCN1c2cc(Cl)ccc2Sc2cc3ccccc3nc21 [compound 13],82.3 ± 6.2,1.2,–,< 100,1.0,< 100,–,–,–,–,–,–,3.11,–,–,77.17,4.21,–,–,–
CCOC(=O)NCCCCN1c2cc(Cl)ccc2Sc2cc3ccccc3nc21 [compound 14],–,1.0,–,< 100,1.0,< 100,–,–,–,–,–,–,4.06,–,–,82.86,5.43,–,–,–
O=C(NCCCl)NCCCCN1c2cc(Cl)ccc2Sc2cc3ccccc3nc21 [compound 15],6.98,–,–,7.4 ± 1.2,0.1,1.1 ± 0.3,6.4 ± 2.4,0.2,76.6 ± 9.8,0.1,11.3 ± 2.2,0.1,3.59,–,–,76.22,4.82,moderate antibacterial activity,–,2 to 8
CS(=O)(=O)NCCCCN1c2cc(Cl)ccc2Sc2cc3ccccc3nc21 [compound 16],30.5 ± 8.3,3.3,–,< 100,0.2,< 100,98.4 ± 5.6,1.0,–,1.0,0.7,143,3.65,–,–,76.36,4.9,–,no cytotoxic effects; also recorded: lack of toxicity to non-cancer cells,–
Cc1ccc(S(=O)(=O)NCCCCN2c3cc(Cl)ccc3Sc3cc4ccccc4nc32)cc1 [compound 17],9.45,10.5,–,< 100,1.0,< 100,–,1.0,48.6 ± 4.7,2.0,–,–,4.68,–,–,80.41,6.22,–,–,–
"CN(C)CCCN1c2ccccc2Sc2ccc(Cl)cc21 [compound 18, chlorpromazine, reference compound]",–,–,–,–,–,–,–,–,–,–,–,–,3.41,–,–,67.79,4.59,–,–,–
"Clc1ccc(C(c2ccc(Cl)cc2)C(Cl)(Cl)Cl)cc1 [p,p’-DDT, reference compound]",–,–,–,–,–,–,–,–,–,–,–,–,4.69,6.24,6.38 [37],–,–,–,–,–

# — PMC12384454, “Study of the Lipophilicity of Tetracyclic Anticancer Azaphenothiazines” (Biomolecules, 2025)
